Laboratory results taken from patent US6015823A, “4-Cyclohexylphenyl-oxazolines and their use for controlling animal pests” (Bayer Aktiengesellschaft, priority 1996, dated 2000).

How the values were obtained:
[1] = tested on: caterpillars of the owlet moth (Spodoptera frugiperda); assay: Spodoptera frugiperda test; type: in vivo; conditions: Spodoptera frugiperda, 168 h; active compound concentration 0.1%, after 7 days; read-out: destruction in %
Protocol: Spodoptera frugiperda test
(§1) Solvent: 7 parts by weight of dimethylformamide
(§2) Emulsifier: 1 part by weight of alkylaryl polyglycol ether
(§3) To produce a suitable preparation of active compound, I part by weight of active compound is mixed with the stated amount of solvent and the stated amount of emulsifier, and the concentrate is diluted with water to the desired concentration.
Cabbage leaves (Brassica oleracea) are treated by being dipped into the active compound preparation of the desired concentration and are infested with caterpillars of the owlet moth (Spodoptera frugiperda), while the leaves are still moist.
After the desired period of time, the destruction in % is determined. 100% means that all the caterpillars have been killed; 0% means that none of the caterpillars have been killed.

[2] = tested on: mustard beetle larvae (Phaedon cochleariae); assay: Phaedon larvae test; type: in vivo; conditions: Phaedon cochleariae, 168 h; active compound concentration 0.01%, after 7 days; read-out: destruction in %
Protocol: as §1, §2, §3
Cabbage leaves (Brassica oleracea) are treated by being dipped into the active compound preparation of the desired concentration and are infested with mustard beetle larvae (Phaedon cochleariae), while the leaves are still moist.
After the desired period of time, the destruction in % is determined. 100% means that all the beetle larvae have been killed; 0% means that none of the beetle larvae have been killed.

[3] = tested on: common spider mite (Tetranychus urticae); assay: Tetranychus test (OP resistant/dip treatment); type: in vivo; conditions: Tetranychus urticae, 312 h, read-out: destruction in %
Protocol: Tetranychus test (OP resistant/dip treatment)
Solvent: 3 parts by weight of dimethylformamide
as §2
To produce a suitable preparation of active compound, 1 part by weight of active compound is mixed with the stated amount of solvent and the stated amount of emulsifier, and the concentrate is diluted with emulsifier-containing water to the desired concentrations.
Bean plants (Phaseolus vulgaris) which are heavily infested by all stages of the common spider mite (Tetranychus urticae) are dipped into the active compound preparation of the desired concentration.
After the desired period of time, the activity in % is determined. 100% means that all the spider mites have been killed; 0% means that none of the spider mites have been killed.

[4] = tested on: All larval stages of Lucilia cuprina (OP resistant); assay: Fly larvae test/development-inhibitory action; type: in vivo; conditions: active compound concentration 1000 ppm, read-out: activity (larvicidal / development-inhibitory)
Protocol: Fly larvae test/development-inhibitory action
Test animals: All larval stages of Lucilia cuprina (OP resistant) [Pupae and adults (without contact with the active compound)]
Solvent: 35 parts by weight of ethylene glycol monomethyl ether 35 parts by weight of nonylphenol polyglycol ether
To prepare a suitable formulation, 3 parts by weight of active compound are mixed with 7 parts of the abovementioned solvent-emulsifier mixture, and the resulting emulsion concentrate is diluted with water to the concentration desired in each case.
For each concentration, 30 to 50 larvae are transferred to horse meat (1 cm^3) located in glass tubes, and 500 μl of the test dilution are pipetted onto the meat. The glass tubes are placed into plastic beakers whose bottom is covered with sea sand and kept in a controlled-environmentcabinet (26° C.±1.5° C., 70% relative humidity±10%). Larvicidal activity is checked after 24 hours and 48 hours. After the larvae have left (about 72 hours), the glass tubes are removed and perforated plastic lids are placed on the beakers. After 11/2 times the development period (hatching of the control flies), the hatched flies and the pupae/puparia are counted.
The criterion for the activity is the death of the treated larvae after 48 hours (larvicidal effect), or inhibition of adults hatching from the pupae or inhibition of pupation. […]

[5] = logp: n-octanol/water partition coefficient by reversed phase HPLC; type: physicochemical; conditions: h2o/ch3cn, read-out: logp (logarithm to base ten of the n-octanol/water partition coefficient)
Excerpt: *) logp: Logarithm to base ten of the n-octanol/water partition coefficient, determined by reversed phase HPLC analysis using H2 O/CH3 CN.
*^) logp: Logarithm to base ten of the noctanol/water partition
coefficient, determined by reversed phase HPLC analysis using H2

[6] = tested on: green rice leaf hopper (Nephotettix cincticeps); assay: Nephotettix test; type: in vivo; conditions: Nephotettix cincticeps, 144 h; active compound concentration 0.1%, after 6 days; read-out: destruction in %
Protocol: as §1, §2
To produce a suitable preparation of active compound, 1 part by weight of active compound is mixed with the stated amount of solvent and the stated amount of emulsifier, and the concentrate is diluted with water to the desired concentration.
Rice seedlings (Oryza sativa) are treated by being dipped into the active compound preparation of the desired concentration and are infested with the green rice leaf hopper (Nephotettix cincticeps), while the seedlings are still moist.
After the desired period of time, the destruction in % is determined. 100% means that all the leaf hoppers have been killed; 0% means that none of the leaf hoppers have been killed.

| SMILES | mortality at 0.1 % [1] | mortality at 0.01 % [2] | mortality at 0.0001 % [3] | inhibition at 1000 ppm [4] | chromatographic logP [5] | mortality at 0.1 % [6] |
| --- | --- | --- | --- | --- | --- | --- |
| Fc1cccc(F)c1C1=NC(c2ccc(C3CCC4(CC3)OCC(c3ccc(Cl)cc3)O4)cc2)CO1 (centres unmarked) [Example 5, 2-(2,6-difluorophenyl)-4-[4-(4-p-chlorophenylethylenedioxo-cyclohexyl)-phenyl]-1,3-oxazoline] | 100% | 100% | 98% | 100% | 5.37 |  |
| CCON=C1CCC(c2ccc(C3COC(c4c(F)cccc4F)=N3)cc2)CC1 (centres unmarked) [Example 6] | 100% | 100% | 98% | 100% | 4 | 100% |
